This is an account of results in patent US10005769B2, “2,3-dihydrobenzofuran-5YL compounds as DYRK kinase inhibitors” (4SC DISCOVERY GMBH, priority 2013, dated 2018).

Data set [1] deals with Hedgehog signaling pathway (Gli Reporter - NIH3T3 cell line). Briefly: Hedgehog Reporter Assay (Gli-Reporter, luciferase, mSHH stimulated). Format: cell-based, murine. The following applies: Mus musculus; Gli Reporter NIH3T3 cells, 1 μg/ml mSHH, 24 h. How it is done:
In order to investigate the potency of test compounds to inhibit the Hedgehog signaling pathway, a Gli-Reporter assay was performed. The “Gli Reporter-NIH3T3” cell line contains the firefly luciferase gene under the control of Gli responsive elements stably integrated into murine NIH3T3 cells (cells purchased from AMS Biotechnology ltd., 184 Milton Park, Abingdon OX14 4SE, U.K.). The luciferase expression correlates with activation of the hedgehog signaling pathway. This cell line is validated for its response to stimulation with murine Sonic Hedgehog and to treatment with inhibitors of the hedgehog signaling pathway. A multiplexed viability assay was used to discriminate inhibition on the pathway activity from cell toxicity. Growth Medium: DMEM (Dulbecco's Modified Eagle Medium); 10% Fetal Calf Serum; 1% Penicillin/Streptomycin; 500 μg/ml Geneticin (G418 Stock 50 mg/ml). Assay Medium: Opti-MEM® Reduced Serum Medium; 0.5% Calf Serum; 1% non-essential amino acids; 1 mM Na-pyruvate; 10 mM HEPES; 1% Penicillin/Streptomycin. 25,000 cells per well were seeded into a white 96 well plate in 100 μl growth medium and incubated over night at 37° C. and 5% CO2. After removing the supernatant the test compounds and controls were added in different concentrations in a final volume of 45 μl and incubated for 1 h at 37° C. and 5% CO2. For the stimulation of the Hedgehog pathway 5 μl of 10 μg/ml concentrated murine SHH (or mSHH; murine sonic hedgehog protein) was added to the cells. A final concentration of 1 μg/ml mSHH and 0.1% DMSO was reached per well. After incubation for 24 h at 37° C. the cells were investigated for viability and reporter activity. Viability: For the determination of the viability of the treated cells the CellTiter-FluorTM Kit from Promega comprising the fluorogenic, cell-permeant peptide substrate ([…]-aminofluorocoumarin GF-AFC was used. Roughly, only proteases of viable cells are able to cleave the GF-AFC. By this cleavage the fluorescent AFC is set free and can be detected in a fluorescence reader. For this assay 10 μl of GF-AFC substrate (CellTiter-FluorTM, Promega #G6082) was diluted in 2 ml assay buffer from the CellTiter-FluorTM Kit and 10 μl of this dilution was added per well to the cells and incubated for 30 min at 37° C. The fluorescence was measured with an excitation of 380-400 nm and an emission of 505 nm. Reporter activity: The firefly luciferase reporter activity was detected with the ONE-GloTM Luciferase Assay System from Promega. For this assay 50 μl ONE-Glo luciferase reagent (Promega #E6120, contains cell lysis buffer and luciferin) was added to each well and incubated at room temperature for 5 min. Luminescence was detected in a plate reader and served as a measure for reporter activity.

The next data set concerns the target DYRK1B (Homo sapiens (Human), UniProt Q9Y463). As to the kind of experiment: DYRK1B Kinase Assay (33P ATP, DYRKtide substrate, Reaction Biology Corp.). Format: biochemical. To be noted: 0.3 nM DYRK1B, 20 μM DYRKtide, 10 μM ATP, 25° C., 120 min. In short, it runs like this:
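DYRK1B (0.3 nM) with 20 μM DYRKtide peptide in HEPES pH 7.5 buffer, 1% DMSO; compound preincubated 20 min before 10 μM ATP plus 33P-ATP. Reaction 120 min at 25 °C, filter-binding readout of radiolabel. IC50 from curve fit of dilution series.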

Data set [2] deals with L3.6pl human metastatic pancreatic adenocarcinoma cells. Briefly: Xenograft assay with L3.6pl cancer cells. It is filed as in vivo, Foxn1nu/nu nude mice. To be noted: 100 mg/kg/day p.o. daily. How it is done:
The x-axis reflects the time [in days], while the y-axis reflects the tumor volume [in mm^3]. A xenograft assay with L3.6pl cancer cells was prepared as follows: 1×10^5 L3.6pl (Bruns et al., 1999) human metastatic pancreatic adenocarcinoma cells in 25% Matrigel (BD Biosciences, NJ, USA) were injected subcutaneously into the lower flanks of Foxn1nu/nu nude mice (Charles River Laboratories, USA). The compound of example 5 was administered p.o. daily with 100 mg/kg/day, dissolved in a mixture of 20% Glycofurol 75, 20% Oleic acid and 60% Olive oil; administration was started at the same day of injection of tumor cells. As a negative control, separate aminals were administered solvent vehicle without active compound. The tumor volume was measured with a caliper and calculated according to the formula [4/3×π×(length/2)×(width/2)×(height/2). Results are shown in FIG. 1, the p value was <0.01.

The structures appear in SMILES notation.

DYRK1B, sequence (Q9Y463 whole entry): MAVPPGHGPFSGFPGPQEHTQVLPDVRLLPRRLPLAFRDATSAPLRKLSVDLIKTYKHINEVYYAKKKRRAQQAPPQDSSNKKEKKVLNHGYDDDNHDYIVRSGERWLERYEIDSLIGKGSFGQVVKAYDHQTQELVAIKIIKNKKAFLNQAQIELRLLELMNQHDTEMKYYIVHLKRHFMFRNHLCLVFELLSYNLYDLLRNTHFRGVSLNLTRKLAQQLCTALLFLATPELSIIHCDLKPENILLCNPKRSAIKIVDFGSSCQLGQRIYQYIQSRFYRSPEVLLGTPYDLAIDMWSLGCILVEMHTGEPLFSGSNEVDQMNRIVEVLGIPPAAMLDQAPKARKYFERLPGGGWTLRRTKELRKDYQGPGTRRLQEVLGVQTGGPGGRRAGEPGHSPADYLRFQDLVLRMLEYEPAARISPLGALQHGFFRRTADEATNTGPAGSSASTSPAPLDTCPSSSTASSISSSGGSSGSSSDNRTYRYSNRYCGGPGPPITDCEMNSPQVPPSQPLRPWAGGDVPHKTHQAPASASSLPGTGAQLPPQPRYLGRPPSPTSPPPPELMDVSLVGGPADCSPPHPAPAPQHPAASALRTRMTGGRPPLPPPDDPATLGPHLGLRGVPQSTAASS

With `O=C(Nc1nc2cc(C(F)(F)F)ccc2[nH]1)c1csc(-c2ccc3c(c2)CCO3)n1` [Compound 5, 2-(2,3-Dihydrobenzofuran-5-yl)-N-(5-(trifluoromethyl)-1H-benzo[d]imidazol-2-yl)thiazole-4-carboxamide], the IC50 in data set [1] was 1 to 3 µM; on DYRK1B, 0.0909 µM. Besides, in data set [2], the “animals' weight over the course of the experiment” value is on record as “essentially unchanged”.
